# Experimental data taken from ChEMBL document CHEMBL6178019, “Discovery of CYP1A1 Inhibitors for Host-Directed Therapy against Sepsis” (J Med Chem, 2025).
# Target: T1, CYP1A1 (Homo sapiens, UniProt P04798)
# T1 sequence (P04798 whole entry): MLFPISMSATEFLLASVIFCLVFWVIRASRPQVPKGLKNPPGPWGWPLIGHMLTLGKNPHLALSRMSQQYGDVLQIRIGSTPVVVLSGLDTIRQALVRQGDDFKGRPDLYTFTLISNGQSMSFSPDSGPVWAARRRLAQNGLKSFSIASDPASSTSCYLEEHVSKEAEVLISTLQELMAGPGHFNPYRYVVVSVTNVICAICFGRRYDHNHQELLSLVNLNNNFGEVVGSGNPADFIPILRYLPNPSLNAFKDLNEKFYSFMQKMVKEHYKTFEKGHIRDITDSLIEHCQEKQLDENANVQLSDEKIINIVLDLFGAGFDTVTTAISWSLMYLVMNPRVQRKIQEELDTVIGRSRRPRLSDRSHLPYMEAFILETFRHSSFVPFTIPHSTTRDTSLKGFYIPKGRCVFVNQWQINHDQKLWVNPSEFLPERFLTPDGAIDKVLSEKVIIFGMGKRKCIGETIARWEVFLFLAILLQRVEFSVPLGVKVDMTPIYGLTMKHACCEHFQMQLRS
# Assay: Inhibition of CYP1A1 in human Caco-2 cells assessed as relative activity by measuring fold change at 500 nM incubated for 12 hrs by EROD assay relative to control
# Type: cell-based
# Conditions: read-out: FC
row,Structure (SMILES),"fold induction at 12 h, 0.5 µM"
1,COc1ccc2c(c1)c(/C=C/C(=O)c1ccc3c(c1)n(C)c(=O)n3C)cn2Cc1ccccc1,1.14
2,Cn1c(=O)n(C)c2cc(C(=O)/C=C/c3coc4ccccc34)ccc21,1.29
3,Cn1c(=O)n(C)c2cc(C(=O)/C=C/c3ccccn3)ccc21,0.83
4,Cn1c(=O)n(C)c2cc(C(=O)/C=C/c3ccncc3)ccc21,2.34
5,CC(=O)n1cc(/C=C/C(=O)c2ccc3c(c2)n(C)c(=O)n3C)c2ccccc21,0.93
6,Cn1c(=O)n(C)c2cc(C(=O)/C=C/c3ccco3)ccc21,0.87
7,Cn1c(=O)n(C)c2cc(C(=O)/C=C/C=C/c3ccccc3)ccc21,0.82
8,Cn1c(=O)n(C)c2cc(C(=O)/C=C/c3ccc([N+](=O)[O-])cc3)ccc21,0.97
9,Cn1c(=O)n(C)c2cc(C(=O)/C=C/c3ccoc3)ccc21,0.57
10,Cn1c(=O)n(C)c2cc(C(=O)/C=C/c3ccc4ccccc4n3)ccc21,0.38
11,Cn1c(=O)n(C)c2cc(C(=O)/C=C/c3c4ccccc4cc4ccccc34)ccc21,0.8
12,Cn1c(=O)n(C)c2cc(C(=O)/C=C/c3cccnc3)ccc21,3.53
13,Cn1c(=O)n(C)c2cc(S(=O)(=O)NCc3ccccc3)ccc21,1.1
14,Cn1c(=O)n(C)c2cc(C(=O)/C=C/C3CC3)ccc21,0.71
15,Cn1c(=O)n(C)c2cc(C(=O)/C=C/c3cccn3C(=O)OC(C)(C)C)ccc21,0.9
16,Cn1c(=O)n(C)c2cc(C(=O)/C=C/c3ccc4ccccc4c3)ccc21,1.18
17,O=C(/C=C/c1ccc(F)cc1)c1ccccc1 [4-FLUORO CHALCONE],0.83
18,CSc1ccc(/C=C/C(=O)c2ccc3c(c2)n(C)c(=O)n3C)cc1,0.81
19,CCCCOc1ccc(/C=C/C(=O)c2ccc3c(c2)n(C)c(=O)n3C)cc1,0.91
20,Cn1c(=O)n(C)c2cc(C(=O)/C=C/C=C/c3ccc(F)cc3)ccc21,0.62

# Target: T2, Cytochrome P450 1A1 (Homo sapiens, UniProt P04798)
# T2 sequence (P04798 whole entry): T1 sequence (P04798 whole entry)
# Assay: Inhibition of CYP1A1 in human Caco-2 cells assessed as relative activity by measuring fold change at 5.0 uM incubated for 12 hrs by EROD assay relative to control
# Type: cell-based
# Conditions: caco-2, 12 h
row,Structure (SMILES),fold change (FC)
1,COc1ccc2c(c1)c(/C=C/C(=O)c1ccc3c(c1)n(C)c(=O)n3C)cn2Cc1ccccc1,0.81
2,Cn1c(=O)n(C)c2cc(C(=O)/C=C/c3coc4ccccc34)ccc21,0.9
3,Cn1c(=O)n(C)c2cc(C(=O)/C=C/c3ccccn3)ccc21,0.88
4,Cn1c(=O)n(C)c2cc(C(=O)/C=C/c3ccncc3)ccc21,3.08
5,CC(=O)n1cc(/C=C/C(=O)c2ccc3c(c2)n(C)c(=O)n3C)c2ccccc21,0.77
6,Cn1c(=O)n(C)c2cc(C(=O)/C=C/c3ccco3)ccc21,0.47
7,Cn1c(=O)n(C)c2cc(C(=O)/C=C/C=C/c3ccccc3)ccc21,0.35
8,Cn1c(=O)n(C)c2cc(C(=O)/C=C/c3ccc([N+](=O)[O-])cc3)ccc21,0.37
9,Cn1c(=O)n(C)c2cc(C(=O)/C=C/c3ccoc3)ccc21,0.18
10,Cn1c(=O)n(C)c2cc(C(=O)/C=C/c3ccc4ccccc4n3)ccc21,0.13
11,Cn1c(=O)n(C)c2cc(C(=O)/C=C/c3c4ccccc4cc4ccccc34)ccc21,0.71
12,Cn1c(=O)n(C)c2cc(C(=O)/C=C/c3cccnc3)ccc21,0.93
13,Cn1c(=O)n(C)c2cc(S(=O)(=O)NCc3ccccc3)ccc21,0.94
14,Cn1c(=O)n(C)c2cc(C(=O)/C=C/C3CC3)ccc21,0.12
15,Cn1c(=O)n(C)c2cc(C(=O)/C=C/c3cccn3C(=O)OC(C)(C)C)ccc21,0.67
16,Cn1c(=O)n(C)c2cc(C(=O)/C=C/c3ccc4ccccc4c3)ccc21,0.47
17,O=C(/C=C/c1ccc(F)cc1)c1ccccc1 [4-FLUORO CHALCONE],0.86
18,CSc1ccc(/C=C/C(=O)c2ccc3c(c2)n(C)c(=O)n3C)cc1,0.78
19,CCCCOc1ccc(/C=C/C(=O)c2ccc3c(c2)n(C)c(=O)n3C)cc1,0.23
20,Cn1c(=O)n(C)c2cc(C(=O)/C=C/C=C/c3ccc(F)cc3)ccc21,0.17

# Target: T3, CYP1A1 (Mus musculus, UniProt P00184)
# T3 sequence (P00184 whole entry): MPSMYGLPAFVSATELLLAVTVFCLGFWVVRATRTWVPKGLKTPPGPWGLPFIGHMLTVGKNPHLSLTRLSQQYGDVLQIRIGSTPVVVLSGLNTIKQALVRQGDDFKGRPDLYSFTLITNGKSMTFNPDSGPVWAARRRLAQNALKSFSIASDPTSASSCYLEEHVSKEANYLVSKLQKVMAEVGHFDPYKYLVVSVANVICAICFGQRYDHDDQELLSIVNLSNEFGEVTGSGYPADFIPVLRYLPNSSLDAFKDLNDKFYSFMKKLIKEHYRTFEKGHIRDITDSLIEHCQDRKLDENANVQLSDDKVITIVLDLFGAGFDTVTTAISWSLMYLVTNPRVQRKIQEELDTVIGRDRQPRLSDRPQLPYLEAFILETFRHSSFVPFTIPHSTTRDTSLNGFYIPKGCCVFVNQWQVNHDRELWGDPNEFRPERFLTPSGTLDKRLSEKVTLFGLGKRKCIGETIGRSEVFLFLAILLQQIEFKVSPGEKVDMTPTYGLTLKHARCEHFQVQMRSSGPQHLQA
# Assay: Inhibition of CYP1A1 in mouse RAW264.7 cells assessed as relative activity by measuring fold change at 500 nM incubated for 12 hrs by EROD assay relative to control
# Type: cell-based
# Conditions: read-out: FC
row,Structure (SMILES),"fold induction at 12 h, 0.5 µM"
1,COc1ccc2c(c1)c(/C=C/C(=O)c1ccc3c(c1)n(C)c(=O)n3C)cn2Cc1ccccc1,1.15
2,Cn1c(=O)n(C)c2cc(C(=O)/C=C/c3coc4ccccc34)ccc21,0.5
3,Cn1c(=O)n(C)c2cc(C(=O)/C=C/c3ccccn3)ccc21,0.9
4,Cn1c(=O)n(C)c2cc(C(=O)/C=C/c3ccncc3)ccc21,1.08
5,CC(=O)n1cc(/C=C/C(=O)c2ccc3c(c2)n(C)c(=O)n3C)c2ccccc21,0.92
6,Cn1c(=O)n(C)c2cc(C(=O)/C=C/c3ccco3)ccc21,0.5
7,Cn1c(=O)n(C)c2cc(C(=O)/C=C/C=C/c3ccccc3)ccc21,0.62
8,Cn1c(=O)n(C)c2cc(C(=O)/C=C/c3ccc([N+](=O)[O-])cc3)ccc21,0.79
9,Cn1c(=O)n(C)c2cc(C(=O)/C=C/c3ccoc3)ccc21,0.93
10,Cn1c(=O)n(C)c2cc(C(=O)/C=C/c3ccc4ccccc4n3)ccc21,0.61
11,Cn1c(=O)n(C)c2cc(C(=O)/C=C/c3c4ccccc4cc4ccccc34)ccc21,1.15
12,Cn1c(=O)n(C)c2cc(C(=O)/C=C/c3cccnc3)ccc21,2.57
13,Cn1c(=O)n(C)c2cc(S(=O)(=O)NCc3ccccc3)ccc21,1.02
14,Cn1c(=O)n(C)c2cc(C(=O)/C=C/C3CC3)ccc21,0.8
15,Cn1c(=O)n(C)c2cc(C(=O)/C=C/c3cccn3C(=O)OC(C)(C)C)ccc21,0.69
16,Cn1c(=O)n(C)c2cc(C(=O)/C=C/c3ccc4ccccc4c3)ccc21,0.8
17,O=C(/C=C/c1ccc(F)cc1)c1ccccc1 [4-FLUORO CHALCONE],1.1
18,CSc1ccc(/C=C/C(=O)c2ccc3c(c2)n(C)c(=O)n3C)cc1,0.57
19,CCCCOc1ccc(/C=C/C(=O)c2ccc3c(c2)n(C)c(=O)n3C)cc1,0.95
20,Cn1c(=O)n(C)c2cc(C(=O)/C=C/C=C/c3ccc(F)cc3)ccc21,0.82

# Target: T3, CYP1A1
# Assay: Inhibition of CYP1A1 in mouse RAW264.7 cells assessed as relative activity by measuring fold change at 5 uM incubated for 12 hrs by EROD assay relative to control
# Type: cell-based
# Conditions: read-out: FC
row,Structure (SMILES),"fold induction at 12 h, 5 µM"
1,COc1ccc2c(c1)c(/C=C/C(=O)c1ccc3c(c1)n(C)c(=O)n3C)cn2Cc1ccccc1,0.81
2,Cn1c(=O)n(C)c2cc(C(=O)/C=C/c3coc4ccccc34)ccc21,0.22
3,Cn1c(=O)n(C)c2cc(C(=O)/C=C/c3ccccn3)ccc21,0.16
4,Cn1c(=O)n(C)c2cc(C(=O)/C=C/c3ccncc3)ccc21,1.22
5,CC(=O)n1cc(/C=C/C(=O)c2ccc3c(c2)n(C)c(=O)n3C)c2ccccc21,0.17
6,Cn1c(=O)n(C)c2cc(C(=O)/C=C/c3ccco3)ccc21,0.31
7,Cn1c(=O)n(C)c2cc(C(=O)/C=C/C=C/c3ccccc3)ccc21,0.44
8,Cn1c(=O)n(C)c2cc(C(=O)/C=C/c3ccc([N+](=O)[O-])cc3)ccc21,0.64
9,Cn1c(=O)n(C)c2cc(C(=O)/C=C/c3ccoc3)ccc21,0.67
10,Cn1c(=O)n(C)c2cc(C(=O)/C=C/c3ccc4ccccc4n3)ccc21,0.17
11,Cn1c(=O)n(C)c2cc(C(=O)/C=C/c3c4ccccc4cc4ccccc34)ccc21,1.06
12,Cn1c(=O)n(C)c2cc(C(=O)/C=C/c3cccnc3)ccc21,0.53
13,Cn1c(=O)n(C)c2cc(S(=O)(=O)NCc3ccccc3)ccc21,0.9
14,Cn1c(=O)n(C)c2cc(C(=O)/C=C/C3CC3)ccc21,0.38
15,Cn1c(=O)n(C)c2cc(C(=O)/C=C/c3cccn3C(=O)OC(C)(C)C)ccc21,0.55
16,Cn1c(=O)n(C)c2cc(C(=O)/C=C/c3ccc4ccccc4c3)ccc21,0.77
17,O=C(/C=C/c1ccc(F)cc1)c1ccccc1 [4-FLUORO CHALCONE],0.91
18,CSc1ccc(/C=C/C(=O)c2ccc3c(c2)n(C)c(=O)n3C)cc1,0.2
19,CCCCOc1ccc(/C=C/C(=O)c2ccc3c(c2)n(C)c(=O)n3C)cc1,0.77
20,Cn1c(=O)n(C)c2cc(C(=O)/C=C/C=C/c3ccc(F)cc3)ccc21,0.57
